Source: the NIST ThermoML archive (doi:10.1021/je0501585)

Assay: xn = mol fraction of the nth substance listed
Conditions: 101 kPa, Liquid; for excess molar volume: Direct dilatometry; for speed of sound: Linear variable-path acoustic interferometer; for viscosity: Capillary tube (Ostwald / Ubbelohde) method

Cc1ccc(C)cc1 [1,4-dimethylbenzene] + CCCCCCCCCC
Conditions | excess molar volume, 308.15 K [m3/mol] | excess molar volume, 313.15 K [m3/mol] | speed of sound, 308.15 K [m/s] | speed of sound, 313.15 K [m/s] | viscosity, 313.15 K [mPa·s]
x1 = 0.1533 | – | 6.99e-07 | 1192.3 | 1176.9 | 0.66
x1 = 0.2952 | – | 9.11e-07 | 1197.6 | 1182 | 0.623
x1 = 0.4189 | – | 9.8e-07 | 1203.1 | 1187.7 | 0.59
x1 = 0.4949 | – | 9.81e-07 | 1207.3 | 1192 | 0.573
x1 = 0.6001 | – | 9.41e-07 | 1214.1 | 1198.8 | 0.552
x1 = 0.6938 | 6.32e-07 | 8.76e-07 | 1221.6 | 1205.6 | 0.538
x1 = 0.7777 | 5.56e-07 | 7.71e-07 | 1229 | 1212.5 | 0.527
x1 = 0.8604 | 4.55e-07 | 6.47e-07 | 1238.4 | 1221.3 | 0.519
x1 = 0.9332 | 3.03e-07 | 4.4e-07 | 1251 | 1232.8 | 0.515
x1 = 1 | 0 | 0 | 1271 | 1260 | 0.513
